Reference: patent US20250339569A1, “CARBONIC ANHYDRASE IX LIGANDS” (priority 2021, published 2025)
Where two headings read alike, the source gives them in different places. Starred links: 1 amine or outer side, 2 acyl side, 3 side chain; linkers in the order of their positions; H or OH if unused. Positions of bridges follow the written chain, without caps; N, C: chain ends. Non-standard residues stand in square brackets, D forms with d. Residues, ends and D or L forms follow the SMILES beside them. *: point of attachment. X3 = O=C(O)CN1CCN(CC(=O)O)CCN(CC(=O)NCCCOCCOCCOCCCN*)CCN(CC(=O)O)CC1; DOTA = O=C(O)CN1CCN(CC(=O)O)CCN(CC(=O)*)CCN(CC(=O)O)CC1; Trp(7-aza) = N[C@@H](Cc1c[nH]c2ncccc12)C(=O)O; Phe(4-NH2) = Nc1ccc(C[C@H](N)C(=O)O)cc1; mXylylene = c1cc(C[*:1])cc(C[*:2])c1; Hydrocinnamoyl = O=C(CCc1ccccc1)*; X2 = O=C(CN1CCC(N[*:1])CC1)[*:2]; tBuAla = CC(C)(C)C[C@H](N)C(=O)O; Pen = CC(C)(S)[C@H](N)C(=O)O; Suc = O=C(CCC(=O)[*:2])[*:1]; Fluoroacetyl = O=C(CF)*; Aib = CC(C)(N)C(=O)O; Sar = CNCC(=O)O

Target: T1, CAIX-expressing human HT-29 colorectal cancer cells (Homo sapiens, UniProt Q16790)
T1 construct: CAIX-expressing human HT-29 colorectal cancer cells; host or cells: HT-29 human colorectal cancer cells
Test: FACS binding assay (IC50 determination, competition with tracer 3BP-2776 or 3BP-4149)
Protocol: In order to determine binding of compounds according to the present invention to CAIX-expressing cells, a FACS binding assay was established.
CAIX-expressing human HT-29 colorectal cancer cells (DSMZ, RRID: CVCL_0320) were cultured in McCoys's 5A modified medium (Biochrom, #F1015) including 10% fetal calf serum (FCS), 2 mM L-glutamine, 100 U/ml penicillin and 100 μg/mL streptomycin. Cells were detached with Accutase (Biolegend, #423201) and washed in FACS buffer (PBS including 1% FCS). Cells were diluted in FACS buffer to a final concentration of 500.000 cells per ml. 200 μL of the cell suspension were transferred to a u-shaped non-binding 96-well plate (Greiner) and cells were washed in ice-cold FACS buffer.
When biotinylated compounds were used an additional incubation step with 1 μg/mL APC-Streptavidin (Miltenyi; #130-106-791) in 50 μL FACS buffer for 30 minutes on ice was performed.
Cells were washed twice with ice-cold FACS buffer and analyzed in an Attune NxT flow cytometer (Thermo Fisher). Median fluorescence intensities (MFI) of the APC/Cy5-channel were calculated by Attune NxT software. MFI values were plotted against peptide concentration and four parameter logistic (4PL) curve fitting and EC50/pEC50 or IC50/pIC50 calculations were performed using ActivityBase software.

[1] = FACS competition on HT-29 cells, Tracer ID 3BP-2776 (10 nM, biotin-labeled), 4° C., 1 hour, read-out: pIC50 category (activity) (converted)

SMILES	IC50 [1]	also measured
CC(C)C[C@@H]1NC(=O)[C@H](Cc2c[nH]c3ccccc23)NC(=O)[C@H](CC(=O)O)NC(=O)[C@H]2CCCN2C(=O)[C@H](CCC(=O)O)NC(=O)[C@@H](NC(=O)[C@H](Cc2ccc(O)cc2)NC(=O)[C@@H](NC(=O)CN2CCC(NC(=O)CN3CCN(CC(=O)O)CCN(CC(=O)O)CCN(CC(=O)O)CC3)CC2)C(C)C)CSCc2cccc(c2)CSC[C@@H](C(N)=O)NC(=O)[C@H](CO)NC(=O)[C@H](Cc2c[nH]c3ncccc23)NC(=O)[C@H]([C@@H](C)O)NC1=O [3BP-4159] ({DOTA}-[X2]VYCE[dP]DWLT[Trp(7-aza)]SC-NH2; linker 4-13 via mXylylene)	–	IC50 (FACS binding assay, HT-29 cells, competition with tracer 3BP-2776 (10 nM, biotin-labeled), 4° C., 1 hour, read-out: pIC50 category (activity) (converted)): < 10 nM
CC(C)C[C@@H]1NC(=O)[C@H](Cc2c[nH]c3ccccc23)NC(=O)[C@H](CC(=O)O)NC(=O)CN(C)C(=O)[C@H](CCC(=O)O)NC(=O)[C@@H](NC(=O)[C@H](Cc2ccc(O)cc2)NC(=O)[C@@H](NC(=O)CCC(=O)NCCCOCCOCCOCCCNC(=O)CN2CCN(CC(=O)O)CCN(CC(=O)O)CCN(CC(=O)O)CC2)C(C)C)CSCc2cccc(c2)CSC[C@@H](C(N)=O)NC(=O)[C@H](C)NC(=O)[C@H](Cc2c[nH]c3ccccc23)NC(=O)[C@H]([C@@H](C)O)NC1=O [3BP-3278] ({X3-Suc}-VYCE[Sar]DWLTWAC-NH2; linker 3-12 via mXylylene)	10 to 79.4 nM	–
CC(C)C[C@@H]1NC(=O)[C@H](Cc2ccc(NC(=O)CF)cc2)NC(=O)[C@H](CC(=O)O)NC(=O)[C@H]2CCCN2C(=O)[C@H](CCC(=O)O)NC(=O)[C@@H](NC(=O)[C@H](Cc2ccc(O)cc2)NC(=O)[C@@H](NC(=O)CN2CCC(NC(=O)CN3CCN(CC(=O)O)CCN(CC(=O)O)CCN(CC(=O)O)CC3)CC2)C(C)C)CSCc2cccc(c2)CSC[C@@H](C(N)=O)NC(=O)[C@H](CO)NC(=O)[C@H](Cc2c[nH]c3ccccc23)NC(=O)[C@H]([C@@H](C)O)NC1=O [3BP-4358] ({DOTA}-[X2]VYCE[dP]D[Phe(4-NH2)](Fluoroacetyl)LTWSC-NH2; linker 4-13 via mXylylene)	–	IC50: 100 to 794 nM
CC(C)C[C@@H]1NC(=O)[C@H](Cc2c[nH]c3ccccc23)NC(=O)[C@H](CC(=O)O)NC(=O)CNC(=O)[C@H](CCC(=O)O)NC(=O)[C@@H](NC(=O)[C@H](Cc2ccc(O)cc2)NC(=O)[C@@H](NC(=O)CCc2ccccc2)C(C)C)CSCc2cccc(c2)CSC[C@@H](C(N)=O)NC(=O)[C@H](CCC(N)=O)NC(=O)[C@H](Cc2c[nH]c3ccccc23)NC(=O)[C@H]([C@@H](C)O)NC1=O [3BP-3110] (Hydrocinnamoyl-VYCEGDWLTWQC-NH2; linker 3-12 via mXylylene)	< 10 nM	–
CC(=O)N[C@H](C(=O)N[C@@H](Cc1ccc(O)cc1)C(=O)N[C@H]1CSCc2cccc(c2)CSC[C@@H](C(N)=O)NC(=O)[C@H](CCC(N)=O)NC(=O)[C@H](Cc2c[nH]c3ccccc23)NC(=O)[C@H](C)NC(=O)[C@H](CC(C)C)NC(=O)[C@H](Cc2c[nH]c3ccccc23)NC(=O)[C@H](CC(=O)O)NC(=O)CNC(=O)[C@H](CCC(=O)O)NC1=O)C(C)C [3BP-3056] (Ac-VYCEGDWLAWQC-NH2; linker 3-12 via mXylylene)	10 to 79.4 nM	–
CC(=O)N[C@H](C(=O)N[C@@H](Cc1ccc(O)cc1)C(=O)N[C@H]1CSCc2cccc(c2)CSC(C)(C)[C@@H](C(N)=O)NC(=O)[C@H](C)NC(=O)[C@H](Cc2c[nH]c3ccccc23)NC(=O)[C@H]([C@@H](C)O)NC(=O)[C@H](CC(C)(C)C)NC(=O)[C@H](Cc2c[nH]c3ccccc23)NC(=O)[C@H](CC(=O)O)NC(=O)[C@H]2CCCN2C(=O)[C@H](CCC(=O)O)NC1=O)C(C)C [3BP-3493] (Ac-VYCE[dP]DW[tBuAla]TWA[Pen]-NH2; linker 3-12 via mXylylene)	< 10 nM	–
CC(=O)N[C@H](C(=O)N[C@@H](Cc1ccc(O)cc1)C(=O)N[C@H]1CSCc2cccc(c2)CSC[C@@H](C(N)=O)NC(=O)[C@H](CCC(N)=O)NC(=O)[C@H](Cc2c[nH]c3ccccc23)NC(=O)[C@H]([C@@H](C)O)NC(=O)[C@H](CC(C)C)NC(=O)[C@H](Cc2c[nH]c3ccccc23)NC(=O)C(C)(C)NC(=O)CNC(=O)[C@H](CCC(=O)O)NC1=O)C(C)C [3BP-3061] (Ac-VYCEG[Aib]WLTWQC-NH2; linker 3-12 via mXylylene)	100 to 794 nM	–
